Data set [1] can be described thus: In vivo μPET experiments, pharmacological parameters (2-Compartment Model). The following applies: Wistar rats.
Data set [2] is described as follows: Ex vivo biodistribution (organ SUV) in healthy Wistar rats 60 min after tail vein injection. The following applies: for Bone-to-organ ratio Blood / Bone-to-organ ratio Heart / Bone-to-organ ratio Intestine / Bone-to-organ ratio Kidneys / Bone-to-organ ratio Liver / Bone-to-organ ratio Lung / Bone-to-organ ratio Muscle / Bone-to-organ ratio Spleen: Wistar rats after 60 min; for SUV Blood / SUV Femur / SUV Heart / SUV Intestine / SUV Kidneys / SUV Liver / SUV Lung / SUV Muscle / SUV Spleen: Wistar rats, ex vivo, 60 min after injection, SUV (standard deviation) from five animals. The protocol: Under isoflurane anesthesia, 15-18 MBq of the ^68Ga-marked compound or of the ^177Lu-marked compounds, diluted in isotonic saline solution, was applied into the tail vein of healthy Wistar rats (N=5) having a weight between 140 and 220 g. The rats were killed 60 min after injection, organ samples were removed and weighed, and the accumulation of the marked bisphosphonate in the tissue was determined in SUV (standardized uptake value) according to the formula: SUV=(activity per g of tissue)/(injected activity) x body weight.

In data set [3] the test system is bone metastases. Nature of the data set: PET/CT uptake (SUV max) in a patient with prostate carcinoma and bone metastases. In kind it is in vivo. The following applies: same patient; DOTA^ZOL PET/CT day n, HBED-PSMA^CC PET/CT day n + 2.
The test system of data set [4] is bone metastases. The data set is described as follows: First therapeutic application / scintigraphy of [177Lu]DOTA^ZOL in a prostate carcinoma patient with disseminated bone metastases. In kind it is in vivo. The method, then:
FIG. 5: Distribution of [^177Lu]DOTA^ZOL in a patient with disseminated bone metastases: [^177Lu]DOTA^ZOL scintigraphy on a patient with prostate carcinoma 6 hours after injection. In a first therapeutic applications [sic], within two months, the PSA value (which represents an important marker in monitoring the progress of the prostate carcinoma) could be lowered from 478 ng/mL initially to 88 ng/mL after only one treatment with 5.5 GBq [^177Lu]DOTA^ZOL. ^177Lu-DOTAM^ZOL may be used equivalently.

Marks after values point to notes of the source that are not given here.

Turning to `O=C(O)CN1CCN(CC(=O)O)CCN(CC(=O)NCCC(P(=O)(O)O)P(=O)(O)O)CCN(CC(=O)O)CC1.[68Ga+3]` [[^68Ga]BPAPD], in data set [1], the “Elimination half-life t1/2(α)” value came to 5 min and the “Elimination half-life t1/2(β)” value is recorded as 4 h. For the same compound, in data set [2], the “Bone-to-organ ratio Blood” value is 3.73, the “Bone-to-organ ratio Heart” value is reported as 10.03, the “Bone-to-organ ratio Intestine” value amounted to 12.35 and the “Bone-to-organ ratio Kidneys” value was 5.73. In data set [2], the “Bone-to-organ ratio Liver” value came to 8.68, the “Bone-to-organ ratio Lung” value is reported as 7.47, the “Bone-to-organ ratio Muscle” value worked out at 18.88 and the “Bone-to-organ ratio Spleen” value stood at 13.96. For the same compound, in data set [2], the “SUV Blood” value is on record as 0.86 (0.21) SUV, the “SUV Femur” value was 3.21 (0.29) SUV, the “SUV Heart” value is on record as 0.32 (0.09) SUV and the “SUV Intestine” value was 0.26 (0.05) SUV. In data set [2], the “SUV Kidneys” value was 0.56 (0.08) SUV, the “SUV Liver” value is listed as 0.37 (0.11) SUV, the “SUV Lung” value is 0.43 (0.08) SUV and the “SUV Muscle” value is reported as 0.17 (0.02) SUV. In data set [2], the “SUV Spleen” value was 0.23 (0.08) SUV.
On to `O=C(O)CN1CCN(CC(=O)O)CCN(CC(=O)NCCC(O)(P(=O)(O)O)P(=O)(O)O)CCN(CC(=O)O)CC1.[68Ga+3]` [[^68Ga]DOTA^PAM], for which, in data set [1], the “Elimination half-life t1/2(α)” value is given as 4.5 min and the “Elimination half-life t1/2(β)” value was 4.5 h. Further, in data set [2], the “Bone-to-organ ratio Blood” value worked out at 7.61, the “Bone-to-organ ratio Heart” value is listed as 19.49, the “Bone-to-organ ratio Intestine” value was 16.11 and the “Bone-to-organ ratio Kidneys” value was 9.44. For the same compound, in data set [2], the “Bone-to-organ ratio Liver” value was 10.02, the “Bone-to-organ ratio Lung” value is on record as 8.61, the “Bone-to-organ ratio Muscle” value turned out to be 47.96 and the “Bone-to-organ ratio Spleen” value turned out to be 14.51. Also, in data set [2], the “SUV Blood” value is reported as 0.60 (0.03) SUV, the “SUV Femur” value is given as 4.53 (0.17) SUV, the “SUV Heart” value is on record as 0.23 (0.02) SUV and the “SUV Intestine” value is on record as 0.28 (0.12) SUV. Besides, in data set [2], the “SUV Kidneys” value is 0.48 (0.06) SUV, the “SUV Liver” value is 0.43 (0.04) SUV, the “SUV Lung” value is reported as 0.53 (0.16) SUV and the “SUV Muscle” value is recorded as 0.09 (0.02) SUV. Also, the “SUV Spleen” value in data set [2] is given as 0.31 (0.04) SUV.
Consider `O=C(O)CN1CCN(CC(=O)O)CCN(CC(=O)NCCc2cn(CC(O)(P(=O)(O)O)P(=O)(O)O)cn2)CCN(CC(=O)O)CC1.[68Ga+3]` [[^68Ga]DOTA^ZOL], for which, in data set [1], the “Elimination half-life t1/2(α)” value was determined as 5 min and the “Elimination half-life t1/2(β)” value was found to be 2.3 h. In data set [2], the “Bone-to-organ ratio Blood” value is recorded as 11.47, the “Bone-to-organ ratio Heart” value is on record as 37.97, the “Bone-to-organ ratio Intestine” value is recorded as 38.67 and the “Bone-to-organ ratio Kidneys” value was found to be 10.22. In addition, in data set [2], the “Bone-to-organ ratio Liver” value is reported as 19.21, the “Bone-to-organ ratio Lung” value is 12.06, the “Bone-to-organ ratio Muscle” value was found to be 65.96 and the “Bone-to-organ ratio Spleen” value amounted to 31.71. Also, in data set [2], the “SUV Blood” value is 0.47 (0.19)^† SUV, the “SUV Femur” value is on record as 5.40 (0.62)^†‡ SUV, the “SUV Heart” value is 0.14 (0.04)^†‡ SUV and the “SUV Intestine” value is recorded as 0.14 (0.08)^ SUV. In data set [2], the “SUV Kidneys” value is 0.53 (0.04)^ SUV, the “SUV Liver” value is reported as 0.28 (0.03)^‡ SUV, the “SUV Lung” value is 0.45 (0.11)^ SUV and the “SUV Muscle” value is recorded as 0.08 (0.02)^† SUV. The “SUV Spleen” value in data set [2] is 0.17 (0.02)^‡ SUV. Moreover, in data set [3], the “SUV max, bone lesion 8th right rear rib” value is listed as 7.99 SUV max; the “SUV max, bone lesion C4 vertebral body and hip pedicle” value came out at 12.38 SUV max; the “SUV max, bone lesion L2 vertebral body” value amounted to 68.92 SUV max; the “SUV max, bone lesion L3 vertebral body” value was found to be 62.96 SUV max. Besides, in data set [3], the “SUV max, bone lesion L4 vertebral body” value worked out at 34.51 SUV max; the “SUV max, bone lesion L5 vertebral body” value was found to be 21.94 SUV max; the “SUV max, bone lesion Left bones, upper ischium, and pubic bone” value was 62.32 SUV max; the “SUV max, bone lesion Right acetabulum” value is 25.39 SUV max. For the same compound, in data set [3], the “SUV max, bone lesion Right ischium” value is reported as 32.55 SUV max; the “SUV max, bone lesion Sacrum” value was found to be 17.98 SUV max; the “SUV max, bone lesion T9 vertebral body” value amounted to 17.08 SUV max; the “SUV max, bone lesion T11 vertebral body” value was determined as 32.29 SUV max. Besides, in data set [3], the “SUV max, soft tissue Bladder” value is 15.53 SUV max; the “SUV max, soft tissue Left kidney” value is given as 4.12 SUV max; the “SUV max, soft tissue Left parotid gland” value was 1.46 SUV max; the “SUV max, soft tissue Liver” value stood at 2.85 SUV max. Further, in data set [3], the “SUV max, soft tissue Right kidney” value is reported as 9.34 SUV max; the “SUV max, soft tissue Right parotid gland” value is listed as 1.22 SUV max; the “SUV max, soft tissue Spleen” value worked out at 4.50 SUV max.
Regarding `O=C(O)CN1CCN(CC(=O)O)CCN(CC(=O)NCCc2cn(CC(O)(P(=O)(O)O)P(=O)(O)O)cn2)CCN(CC(=O)O)CC1.[177Lu+3]` [[^177Lu]DOTA^ZOL], in data set [4] (first clinical studies, FIG. 5 scintigraphy 6 hours after injection), the Selectivity of distribution entry is given as “high selectivity”. In data set [4] (prostate carcinoma patient, within two months after only one treatment with 5.5 GBq, initially 478 ng/mL), the “PSA value after treatment” value was determined as 88 ng/mL.
